Measurements from PubChem BioAssay (NCI).
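Each compound was tested at five concentrations against cells in 96-well plates for 48 hours. Abbreviation: GI50, concentration required for 50% inhibition of growth. At the TGI there is no net growth.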

Tests used:
Test in all cases: DTP human tumour cell line panel, 48 h
DMS 273 small cell lung = test system: DMS 273 small cell lung
EKVX NSCLC = test system: EKVX NSCLC
IGROV1 ovarian = test system: IGROV1 ovarian
MALME-3M melanoma = test system: MALME-3M melanoma
NCI-H226 lung = test system: NCI-H226 lung
NCI-H23 lung = test system: NCI-H23 lung
SK-MEL-2 melanoma = test system: SK-MEL-2 melanoma
SNB-19 CNS = test system: SNB-19 CNS
HCC-2998 colon = test system: HCC-2998 colon
MDA-MB-231 breast = test system: MDA-MB-231 breast

Compound	TGI (DMS 273 small cell lung) [µM]	TGI (EKVX NSCLC) [µM]	TGI (IGROV1 ovarian) [µM]	TGI (MALME-3M melanoma) [µM]	TGI (NCI-H226 lung) [µM]	TGI (NCI-H23 lung) [µM]	TGI (SK-MEL-2 melanoma) [µM]	TGI (SNB-19 CNS) [µM]	TGI (HCC-2998 colon) [µM]	TGI (MDA-MB-231 breast) [µM]	GI50 (EKVX NSCLC) [µM]	GI50 (HCC-2998 colon) [µM]	GI50 (IGROV1 ovarian) [µM]	GI50 (MALME-3M melanoma) [µM]	GI50 (MDA-MB-231 breast) [µM]	GI50 (NCI-H226 lung) [µM]	GI50 (NCI-H23 lung) [µM]	GI50 (SK-MEL-2 melanoma) [µM]	GI50 (SNB-19 CNS) [µM]
CC(C)C(Sc1nc(-c2ccccc2)c(-c2ccccc2)[nH]1)C(=O)N/N=C/c1ccc(Cl)cc1 (stereo not given)	39.6	67.6	48.8	47.7	41.5	52.8	36.5	> 100	–	–	–	–	–	–	–	–	–	–	–
Cc1ccccc1NC(=O)C(=O)C(C1OC(=O)c2ccccc21)[N+](=O)[O-] (stereo not given)	> 100	> 100	> 100	–	> 100	> 100	> 100	> 100	> 100	–	–	–	–	–	–	–	–	–	–
COc1ccc(/C=C2\C(=O)N(C(=O)c3ccc(NC(C)=O)cc3)N=C2C)cc1OC	> 100	> 100	–	> 100	> 100	> 100	> 100	> 100	> 100	–	–	–	–	–	–	–	–	–	–
CN(C)N1C(=C(C#N)C#N)C(c2ccccc2)CC1C#N (stereo not given)	–	> 100	> 100	> 100	> 100	> 100	> 100	> 100	> 100	> 100	–	–	–	–	–	–	–	–	–
CCN1CC2=C(OC(N)=C(C#N)C2c2ccc(Cl)cc2)/C(=C/c2ccc(Cl)cc2)C1 (stereo not given)	–	> 100	> 100	84.7	94.3	68.7	> 100	51	> 100	69.2	–	–	–	–	–	–	–	–	–
O=C(Nc1ccc(Cl)cc1)c1cc(S(=O)(=O)Nc2nc3ncccc3[nH]2)c(SSc2cc(Cl)c(C(=O)Nc3ccc(Cl)cc3)cc2S(=O)(=O)Nc2nc3ncccc3[nH]2)cc1Cl	–	> 100	> 100	> 100	> 100	> 100	> 100	> 100	> 100	> 100	–	–	–	–	–	–	–	–	–
COC(=O)/C(=C(/C)c1ccco1)P(=O)(OC)OC	–	> 100	> 100	> 100	> 100	> 100	> 100	> 100	> 100	> 100	–	–	–	–	–	–	–	–	–
COc1cc(O)c2c(=O)c3cccc(C)c3[nH]c2c1	–	> 10	> 10	> 10	> 10	> 10	> 10	> 10	> 10	> 10	–	–	–	–	–	–	–	–	–
CCOC(=O)CCCN	–	> 100	> 100	> 100	> 100	> 100	> 100	> 100	> 100	> 100	–	–	–	–	–	–	–	–	–
COc1ccccc1C1C(C#N)=C(N)SC(N)=C1C#N	–	> 100	70	> 100	75.8	> 100	> 100	> 100	> 100	60.7	> 100	> 100	11.1	81.3	21.6	25.6	97	> 100	> 100
CN(C(=O)Cc1cc(Cl)c(Cl)cc1NC(=O)CCCN)[C@H]1CCCC[C@@H]1N1CCCC1	–	> 100	> 100	31.1	> 100	> 100	40.5	45.4	37.1	77.4	–	–	–	–	–	–	–	–	–
CC(=O)N1N=C(c2ccccc2)NC(=O)C1c1cc(C)c(O)c(C)c1 (stereo not given)	–	93.6	72.7	38.1	49.7	64.1	72.2	50.9	45.9	46.3	–	–	–	–	–	–	–	–	–
Cc1ccc2[nH]c3c(c2c1)C1CCC(C(C)(C)C)CC1C1C(=O)N(c2ccc(Oc4ccccc4)cc2)C(=O)C31 (stereo not given)	–	> 100	> 100	41.9	> 86.9	58.9	> 100	> 71.9	> 100	> 100	–	–	–	–	–	–	–	–	–
CC(C)NC1CCCCC2c3ccccc3C12O (stereo not given)	> 100	> 100	–	> 100	> 100	> 100	> 100	> 100	–	–	–	–	–	–	–	–	–	–	–
CCOC(=O)N1CCC2(CC1)C[C@](Sc1ccccc1)(C(C)=O)[C@H](C)O2	–	> 100	> 100	> 100	> 100	> 100	> 100	> 100	> 100	> 100	–	–	–	–	–	–	–	–	–
CCO/C(O)=c1/s/c(=C2/SC(=S)N(c3ccc(C)cc3)C2=O)n(-c2ccccc2)c1=N	–	> 100	> 100	> 100	> 76.9	> 100	> 100	> 100	> 100	59	–	–	–	–	–	–	–	–	–

Compound	TGI (DMS 273 small cell lung) [µM]	TGI (EKVX NSCLC) [µM]	TGI (IGROV1 ovarian) [µM]	TGI (MALME-3M melanoma) [µM]	TGI (NCI-H226 lung) [µM]	TGI (NCI-H23 lung) [µM]	TGI (SK-MEL-2 melanoma) [µM]	TGI (SNB-19 CNS) [µM]	TGI (HCC-2998 colon) [µM]	TGI (MDA-MB-231 breast) [µM]	GI50 (EKVX NSCLC) [µM]	GI50 (HCC-2998 colon) [µM]	GI50 (IGROV1 ovarian) [µM]	GI50 (MALME-3M melanoma) [µM]	GI50 (MDA-MB-231 breast) [µM]	GI50 (NCI-H226 lung) [µM]	GI50 (NCI-H23 lung) [µM]	GI50 (SK-MEL-2 melanoma) [µM]	GI50 (SNB-19 CNS) [µM]
[N-]=[N+]=NC1C(Cl)C(=O)NC(=O)N1[C@H]1C[C@H](O)[C@@H](CO)O1 (stereo not given in full)	> 100	> 100	> 100	> 100	–	> 100	> 100	> 100	> 100	–	–	–	–	–	–	–	–	–	–
CN(C)CC1CCC/C(=C\c2ccc(Cl)c(Cl)c2)C1=O (stereo not given)	–	25.5	12.1	20.3	24.5	23.8	16.8	22.4	25.5	10.9	–	–	–	–	–	–	–	–	–
CCCCCCc1cc2cc(C(=O)Nc3nc(C45CC6CC(CC(C6)C4)C5)cs3)c(=O)oc2cc1O	–	51.4	46.9	51.1	44.8	33.2	31.4	60.1	32.8	22.3	–	–	–	–	–	–	–	–	–
CCN(CC)c1c(-c2c(OC(C)C)c(=O)c2=O)c(=O)n2ccsc2c1OC(C)=O	–	> 100	> 100	> 100	> 100	> 100	> 100	> 100	> 100	> 100	–	–	–	–	–	–	–	–	–
O=NN(CC1(O)OCC(O)C(O)C1O)C(Cc1c[nH]c2ccccc12)C(=O)O (stereo not given)	> 100	> 100	> 100	> 100	–	> 100	> 100	–	> 100	–	–	–	–	–	–	–	–	–	–
COc1ccc(OC)c([N+](=O)[O-])c1-c1nc2sc(Cl)cn2c1/C=N/N=C(N)N	–	57	28.8	42.4	44.1	60.7	38.8	43.4	35.6	35.7	–	–	–	–	–	–	–	–	–
COC(=O)c1sc2nc(Nc3ccccc3)c(=Nc3ccccc3)sc2c1C	–	> 100	> 100	> 100	> 100	> 100	> 100	> 100	> 100	> 100	–	–	–	–	–	–	–	–	–
Cc1cnoc1/N=C1\C=C(Nc2oncc2C)C(=O)c2ccccc21	> 100	> 100	> 100	> 100	> 100	> 100	> 100	> 100	> 100	–	–	–	–	–	–	–	–	–	–
C[C@]12CCC(=O)C=C1CC[C@@H]1[C@@H]2CC[C@]2(C)C(=O)/C(=C/c3ccc([N+](=O)[O-])cc3)C[C@@H]12	–	> 100	> 100	> 100	> 100	> 100	> 100	> 100	> 100	> 100	–	–	–	–	–	–	–	–	–
CC1=NN(c2ccccc2)C(=O)/C1=C1\SC(c2ccccc2)(c2ccccc2)c2ccccc21	–	> 100	> 100	> 100	> 100	> 100	> 100	> 100	> 100	> 100	–	–	–	–	–	–	–	–	–
Cc1c2ccccc2c(=O)n2c(-c3ccccn3)cccc12	> 100	> 100	> 100	> 100	> 100	> 100	> 100	> 100	> 100	–	–	–	–	–	–	–	–	–	–
CC1(N2CCOCC2)CC2C(=[N+]1[O-])CCC/C2=N/O (stereo not given)	–	> 100	> 100	> 100	> 100	> 100	> 100	> 100	> 100	> 100	–	–	–	–	–	–	–	–	–
N#C/C=C(/NC(=O)Nc1ccccc1)N1CCCC1	–	> 97	> 76.3	> 66.9	> 65.9	> 64.7	> 52.6	> 45.6	> 53	> 100	–	–	–	–	–	–	–	–	–
C/C(=N/NC(=S)N1CCCCCC1)c1cccc(/C(C)=N\NC(=S)N2CCCCCC2)n1	–	7.98	2.86	2.28	3.31	5.44	3.81	9.43	6.38	3.41	–	–	–	–	–	–	–	–	–
Cn1c2ccccc2n2c(=O)c(-c3ccc(Cl)cc3)nnc12	–	> 100	> 100	> 100	> 100	> 100	> 100	> 100	> 100	> 100	–	–	–	–	–	–	–	–	–
